In PubChem BioAssay (NCI):
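Cells were grown in 96-well plates and exposed to each compound for 48 hours at five concentrations; endpoints were interpolated linearly between bracketing concentrations, or set to the highest concentration if not reached. TGI marks complete inhibition of growth.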

Legend:
Assay in all cases: DTP human tumour cell line panel, 48 h
[1] = tested on: SW-620 colon
[2] = tested on: SK-MEL-2 melanoma
[3] = tested on: NCI-H522 lung
[4] = tested on: NCI-H226 lung
[5] = tested on: LOX IMVI melanoma
[6] = tested on: DU-145 prostate
[7] = tested on: SF-268 CNS
[8] = tested on: MALME-3M melanoma
[9] = tested on: HOP-92 NSCLC
[10] = tested on: A498 renal

Measured: TGI

Cc1[nH]c(=O)c2oc3cc4ccccc4cc3c2c1C(=O)O
not listed: [10]
> 10 µM: all other assays above

N#CCc1nc(-c2cc3ccccc3oc2=O)cs1
80.2 µM: [2]
not listed: [10]
> 100 µM: all other assays above

C(=C\c1cc[n+](CCc2ccccc2)cc1)/c1ccccc1
55.2 µM: [2]
48.9 µM: [4]
32.3 µM: [1]
37 µM: [5]
45.4 µM: [3]
28.6 µM: [8]
74.5 µM: [7]
> 100 µM: [6] | [9]

O=C1/C(=C/c2ccc(Br)s2)NC(=S)N1CN1CCCCC1
52 µM: [5]
37.1 µM: [2]
83.1 µM: [3]
91.7 µM: [10]
not listed: [9]
> 100 µM: all other assays above

O=C(c1c(F)c(F)c(F)c(F)c1F)n1c(=S)n(C(=O)c2c(F)c(F)c(F)c(F)c2F)c2ccccc21
> 100 µM: [1] | [2] | [5] | [6] | [7] | [9]

Cc1cc(C=O)c2c(=O)c3c(O)ccc(/C=C/C(C)C)c3oc2c1
74 µM: [3]
not listed: [5] | [6] | [10]
> 100 µM: all other assays above

COC(=O)N/N=c1\cc(C(=O)Nc2ccc(C)c(C)c2)oc2cc(O)ccc12
not listed: [6]
> 100 µM: all other assays above

Nc1nccc(NCC2(CO)CC(CCc3ccccc3)C2)n1 (stereo unspecified)
26 µM: [3]
29.3 µM: [10]
43.7 µM: [1]
51.7 µM: [4]
30.6 µM: [6]
29.1 µM: [8]
32.8 µM: [2]
34.4 µM: [5]

COC(=O)C1=C(OC)C(=P2(c3ccccc3)CC(c3ccccc3)=C2c2ccccc2)C(C(=O)OC)=C1C(=O)OC (stereo unspecified)
13.6 µM: [3]
> 78.2 µM: [8]
not listed: [9] | [10]
> 100 µM: all other assays above

CN(Cc1cccc2ccsc12)/N=C\c1ccc(Cl)cc1
not listed: [2]
> 100 µM: all other assays above

CCOc1ccc(OP2(=O)NC(=O)C=C(C)N2)cc1 (stereo unspecified)
not listed: [6]
> 100 µM: all other assays above

CCN(CC)c1ccc(Cl)c2c1C(O)(C(C)C)C2(C)C (stereo unspecified)
29.4 µM: [2]
32.6 µM: [1]
33.6 µM: [4]
35.1 µM: [5]
29.9 µM: [3]
35.7 µM: [10]
44.2 µM: [7]
27.4 µM: [8]

CC(=O)Nc1ccc2c(c1)C(=O)c1ccccc1-2
> 100 µM: [1] | [3] | [4] | [5] | [7] | [8]

CS(=O)(=O)CCC1CCC(=O)O1 (stereo unspecified)
not listed: [2]
> 100 µM: all other assays above

CCCCCCCCCCCCCCCCOP(=O)([O-])OCC[N+](C)(C)C1CC(C)(C)N(O)C(C)(C)C1
not listed: [5]
> 100 µM: all other assays above

COC(=O)[C@@H]1Cc2ccc(OC)c(c2)OCCC(=O)N1
not listed: [5] | [9] | [10]
> 100 µM: all other assays above

Cc1nc2ccccc2n1Cc1nnc(-c2ccccc2)o1
not listed: [4]
> 100 µM: all other assays above

COc1ccc(OC)c(/C=C2/C(=O)N=C(NC(C)=O)N2C)c1
not listed: [8] | [10]
> 100 µM: all other assays above

COC(=O)/C=C1\C(CO[Si](C)(C)C(C)(C)C)OC(n2ccc(=O)[nH]c2=O)C1O (stereo unspecified)
44 µM: [9]
41.6 µM: [10]
15.5 µM: [5]
19.5 µM: [4]
32.7 µM: [6]
2.39 µM: [7]
> 100 µM: [1]
21.1 µM: [2]

CCOC(=O)c1cn(-c2ccc([N+](=O)[O-])cc2)c(=S)n2c1nc1ccccc12
> 100 µM: [1] | [4] | [5] | [6]
87.7 µM: [10]
76.7 µM: [2]
57.1 µM: [9]

N#CCC(=O)N/N=C\C(O)C(O)C(O)C(O)CO (stereo unspecified)
not listed: [9]
> 100 µM: all other assays above

Cc1nn(C(=O)Cc2ccccc2)c2c1C(c1ccc(/C=C/c3ccccc3)cc1)SC(N)=N2 (stereo unspecified)
not listed: [2] | [9]
> 100 µM: all other assays above

C#CCN(C(=O)C(F)(F)F)C(/C=C\C(=O)OC)(C(=O)OCC)C(=O)OCC
not listed: [9]
> 100 µM: all other assays above

O=c1c2sc3ccccc3sc=2c(=O)c2c(Cl)c(Cl)c(Cl)c(Cl)c12
not listed: [5] | [9]
> 100 µM: all other assays above

COC(=O)c1c(C)cccc1C1CN=NC12Cc1cc(C)c(C)cc1C2=O (stereo unspecified)
67.9 µM: [5]
54.6 µM: [3]
not listed: [10]
> 100 µM: all other assays above
